Data taken from ChEMBL document CHEMBL2380205, “Discovery of a new class of natural product-inspired quinazolinone hybrid as potent antileishmanial agents” (J Med Chem, 2013).

Assays:
[1] = tested on: Leishmania donovani; assay: Antileishmanial activity against promastigotes of Leishmania donovani MHOM/IN/60/Dd8 after 72 hrs by luciferase reporter gene assay; type: functional, organism-based; conditions: MHOM/IN/60/Dd8, 72 h
[2] = tested on: Leishmania donovani; assay: Antileishmanial activity against amastigotes of Leishmania donovani MHOM/IN/60/Dd8 infected in mouse J-774A.1 cells after 72 hrs by luciferase reporter gene assay; type: functional, organism-based; conditions: MHOM/IN/60/Dd8, J774.A1, 72 h
[3] = Selectivity index, ratio of CC50 for mouse J774A1 cells to IC50 for amastigotes of Leishmania donovani MHOM/IN/60/Dd8 infected in mouse J-774A.1 cells; type: functional, J774.A1
[4] = Cytotoxicity against african green monkey Vero cells after 72 hrs by MTT assay; type: cell-based; conditions: chlorocebus sabaeus
[5] = Cytotoxicity against mouse J774A1 cells after 72 hrs by MTT assay; type: cell-based, J774.A1

IC50 [1]	IC50 [2]	Structure (SMILES)	Ratio CC50/IC50 [3]	CC50 at 72 h [4]	CC50 at 72 h [5]
9 µM	15.3 µM	Nc1nc(-c2ccc(C3NC(=O)c4ccccc4N3)cc2)cc(-c2ccccc2Cl)n1 (configuration not stated)	–	–	–
7 µM	9.07 µM	CC(C)c1ccc(C(Nc2ccc(C3(C)NC(=O)c4ccccc4N3)cc2)c2nnnn2C2CCCCC2)cc1 (configuration not stated)	>44.1	> 400 µM	> 400 µM
> 40 µM	> 40 µM	COc1cc(C(Nc2ccc(C3(C)NC(=O)c4ccccc4N3)cc2)c2nnnn2C(C)(C)C)cc(OC)c1OC (configuration not stated)	–	–	–
5.59 µM	> 40 µM	CCCCNC(c1ccc(C2NC(=O)c3ccccc3N2)cc1)c1nnnn1C(C)(C)C (configuration not stated)	–	–	–
> 40 µM	15.6 µM	CC(C)(C)NC(=O)C(c1ccc(Br)cc1)N(C(=O)c1cccc(Cl)c1)c1ccc(C2(C)NC(=O)c3ccccc3N2)cc1 (configuration not stated)	–	–	–
3.64 µM	> 40 µM	CC(C)(C)n1nnnc1C(NCc1ccccc1)c1ccc(C2NC(=O)c3ccccc3N2)cc1 (configuration not stated)	–	–	–
2.56 µM	15.5 µM	COc1ccc(C(Nc2ccc(C3(C)NC(=O)c4ccccc4N3)cc2)c2nnnn2C(C)(C)C)c2ccccc12 (configuration not stated)	–	–	–
3.44 µM	3.83 µM	COc1cc(-c2cc(-c3ccc(C4NC(=O)c5ccccc5N4)cc3)nc(N)n2)cc(OC)c1OC (configuration not stated)	26.97	85.9 µM	103 µM
3.02 µM	–	CC1(c2ccc(Nc3nc(Nc4ccccc4)nc(Nc4ccccc4)n3)cc2)NC(=O)c2ccccc2N1 (configuration not stated)	–	–	–
4.04 µM	17 µM	Nc1nc(-c2ccccc2)cc(-c2ccc(C3NC(=O)c4ccccc4N3)cc2)n1 (configuration not stated)	–	–	–
> 40 µM	16.8 µM	COc1ccc(C(Nc2ccc(C3(C)NC(=O)c4ccccc4N3)cc2)c2nnnn2C2CCCCC2)cc1 (configuration not stated)	–	–	–
33.2 µM	> 40 µM	CC1(c2ccc(Nc3nc(N4CCCc5ccccc54)nc(N4CCCc5ccccc54)n3)cc2)NC(=O)c2ccccc2N1 (configuration not stated)	–	–	–
> 40 µM	> 40 µM	COc1ccc(CNc2nc(NCc3ccc(OC)cc3)nc(Nc3ccc(C4(C)NC(=O)c5ccccc5N4)cc3)n2)cc1 (configuration not stated)	–	–	–
1.91 µM	> 40 µM	CCCCCNC(c1ccc(C2NC(=O)c3ccccc3N2)cc1)c1nnnn1C(C)(C)C (configuration not stated)	–	–	–
39.5 µM	15.8 µM	CC1(c2ccc(N(C(=O)c3cccc(Cl)c3)C(C(=O)NC3CCCCC3)c3ccc(Cl)cc3)cc2)NC(=O)c2ccccc2N1 (configuration not stated)	–	–	–
> 40 µM	15.5 µM	COc1ccc(C(C(=O)NC2CCCCC2)N(C(=O)c2cccc(Cl)c2)c2ccc(C3(C)NC(=O)c4ccccc4N3)cc2)cc1 (configuration not stated)	–	–	–
> 40 µM	> 40 µM	CC1(c2ccc(Nc3nc(NCCCN4CCOCC4)nc(NCCCN4CCOCC4)n3)cc2)NC(=O)c2ccccc2N1 (configuration not stated)	–	–	–
3.68 µM	> 20 µM	CC1(c2ccc(NC(c3ccc(F)cc3)c3nnnn3C(C)(C)C)cc2)NC(=O)c2ccccc2N1 (configuration not stated)	–	–	–
9.83 µM	24.7 µM	Nc1nc(-c2ccc(F)cc2)cc(-c2ccc(C3NC(=O)c4ccccc4N3)cc2)n1 (configuration not stated)	–	–	–
> 40 µM	> 40 µM	CC1(c2ccc(Nc3nc(N4CCC(O)CC4)nc(N4CCC(O)CC4)n3)cc2)NC(=O)c2ccccc2N1 (configuration not stated)	–	–	–
1.27 µM	> 40 µM	CC(C)(C)n1nnnc1C(c1ccc(C2NC(=O)c3ccccc3N2)cc1)N1CCc2ccccc2C1 (configuration not stated)	–	–	–
> 40 µM	> 40 µM	CC1(c2ccc(Nc3nc(N4CCOCC4)nc(N4CCOCC4)n3)cc2)NC(=O)c2ccccc2N1 (configuration not stated)	–	–	–
3.92 µM	> 20 µM	CC1(c2ccc(NC(c3cccc4ccccc34)c3nnnn3C(C)(C)C)cc2)NC(=O)c2ccccc2N1 (configuration not stated)	–	–	–
13.2 µM	> 20 µM	CC1(c2ccc(Nc3nc(NCc4ccco4)nc(NCc4ccco4)n3)cc2)NC(=O)c2ccccc2N1 (configuration not stated)	–	–	–
> 40 µM	29.6 µM	COc1ccc(C(C(=O)NC(C)(C)C)N(C(=O)c2cccc(Cl)c2)c2ccc(C3(C)NC(=O)c4ccccc4N3)cc2)cc1 (configuration not stated)	–	–	–
> 40 µM	> 40 µM	CC1(c2ccc(NC(c3ccncc3)c3nnnn3C(C)(C)C)cc2)NC(=O)c2ccccc2N1 (configuration not stated)	–	–	–
